The text below walks through data of PMC10410611, “Rhenium(I) Tricarbonyl Complexes of 1,10-Phenanthroline Derivatives with Unexpectedly High Cytotoxicity” (Inorganic Chemistry, 2023).

Series [1] concerns ctDNA. In words: DNA melting. To be noted: ctDNA 40 μM, compound 30 μM. The series is classed as binding, calf. The procedure:
The DNA binding ability of complex 6 was confirmed by measuring the DNA melting temperature prior to complex binding. Briefly, 40 μM ctDNA was incubated with 30 μM of the complex at 37 °C for 15 min. Afterward, the absorbance of the solution was measured at 260 nm in each °C increment in temperature within the range from 60–97 °C. A Cary UV 300 (Agilent Technologies) was used to measure all absorbances. The experiment was programmed with a 1 °C/min temperature ramp rate from the temperature range 60–97 °C, and the holding time was 1 min. Finally, the absorbance of each experiment was normalized to 0 and 1 and further compared with the melting temperature of native ctDNA.

In series [2] the test system is ctDNA. Set-up: method as in PMID 18467423. To be noted: for ctDNA; cited from earlier work.
Series [3] relates to PC3 cells. In words: Cytotoxicity, Resazurin assay, normoxic conditions. To be noted: for IC50: normoxic conditions (∼15% O2 level), 48 h, Resazurin, read-out: IC50 (μM) ± S.D. PC3. The class given is cell-based, human. The procedure:
(§1) The standard Resazurin assay was performed to determine the cytotoxicity of the synthesized complexes. […] After 24 h of the initial incubation period, the medium was replenished by a fresh metal complex-containing medium (100 μL/well) and incubated for an additional 48 h. Initially, the metal complex was dissolved in DMSO and the target concentration was achieved by further dilution with the medium. […] Each of the reported IC50 values is the mean of three individual experiments with standard deviation, and each concentration was assayed in sextuplicate in each successive experiment.
A general note: Alamar Blue is a resazurin reagent that responds to reducing activity.

The subject of series [4] is PC3 cells. The series is described as follows: Cytotoxicity, Resazurin assay, hypoxic conditions. The series is classed as cell-based, human. To be noted: for IC50: PC3, hypoxic conditions (2% O2), 48 h, Resazurin, read-out: IC50 (µM) ± S.D. Hypoxia; for Hypoxia resistance factor (ratio of IC50 in hypoxia and normoxia): PC3. The text has this:
Initially, at least three consecutive cell passages were maintained in hypoxic conditions before starting any experiments.

A further series has as its system RPE-1 cells. The series is described as follows: Cytotoxicity, Resazurin assay, normoxic conditions. The series is classed as cell-based, human. The conditions noted are these: normoxic conditions (∼15% O2 level), 48 h, read-out: IC50 (μM) ± S.D. RPE-1. As for the experimental part:
as §1

The test system of series [5] is 3D multicellular PC3 cell spheroids. The series is described as follows: Cytotoxicity against 3D cell spheroid, AlamarBlue assay. The series is classed as cell-based, human. The conditions noted are these: average diameter 435 μm, 72 h, normoxic, read-out: IC50 against 3D multicellular PC3 cells spheroid. The procedure:
1 × 10^4 PC3 cells were seeded in each well of a Corning 96 Well Ultra-Low Attachment Treated Spheroid Microplate. After 96 h of incubation at 37 °C in normoxic conditions, the average spheroid size observed was 435 μm. Half of the medium was replaced by an equal volume of complex-containing (two times of target concentrations) medium. After 72 h, the cell viability was measured using the AlamarBlue assay. Finally, the IC50 values were determined by using GraphPad Prism 5 software after applying four parameter fitting.

For series [6] the following is noted: cited from earlier work.

Regarding `CC[n+]1c(-c2ccccc2)c2cc(N)ccc2c2ccc(N)cc21` [EB, ethidium bromide, reference compound], the “shift of ctDNA melting temperature (ΔTm)” value with ctDNA [1] worked out at 4 ± 0.1 °C. Further, the “binding constant of EB (KEB)” value in the series on ctDNA [2] was 1 × 10^7 M^–1.

In general, IC50 refers to the concentration that inhibits the measured activity by half. For `Nc1n[n+]([O-])c2ccccc2[n+]1[O-]` [Tirapazamine, tirapazamine, reference compound], the IC50 was ~100 µM with PC3 cells [3] (Homo sapiens, PC-3) and 20.4 ± 3 µM in the series on PC3 cells [4] (Homo sapiens, PC-3). Also, the “cell killing in comparison to the control” value with PC3 cells [3] (PC3, normoxia, maximum tested concentration 100 µM) was “around 50%”. Also, the “Hypoxia resistance factor (ratio of IC50 in hypoxia and normoxia)” value in the series on PC3 cells [4] is recorded as 0.2.

As for `N.N.[Cl][Pt][Cl]` [cisplatin, reference compound], the “selectivity (ratio between IC50 against RPE-1 and IC50 against PC3 cells)” value in the series on PC3 cells [3] (normoxic conditions) is listed as 5. Further, the IC50 in the series with PC3 cells [3] was 6.9 ± 0.5 µM; with RPE-1 cells it was 36 ± 4 µM; with PC3 cells [4], > 50 µM; in series [5], 6.22 µM. Moreover, in the series with PC3 cells [4], the “Hypoxia resistance factor (ratio of IC50 in hypoxia and normoxia)” value is > 7.

As a reminder, the pKa is the pH at which an ionisable group is half protonated. Take `O.O=c1cccccc1[O][Re].[C-]#[O+].[C-]#[O+].[C-]#[O+]` [fac-[Re(CO)3(Trop)(H2O)]]: in series [6], the pKa is given as 8.96 ± 0.02.
